These results are taken from patent US20120172369A1 (priority 2009, published 2012).

Usually pIC50 stands for −log10 of the IC50, conventionally taken in molar units.

pIC50: −log10 of the molar value.

The target in this test is T1, human DGAT1 enzyme (Homo sapiens, UniProt O75907).
T1 construct: made in house; host or cells: Sf9 insect cells (microsomal membranes)
T1 sequence (O75907 1-488): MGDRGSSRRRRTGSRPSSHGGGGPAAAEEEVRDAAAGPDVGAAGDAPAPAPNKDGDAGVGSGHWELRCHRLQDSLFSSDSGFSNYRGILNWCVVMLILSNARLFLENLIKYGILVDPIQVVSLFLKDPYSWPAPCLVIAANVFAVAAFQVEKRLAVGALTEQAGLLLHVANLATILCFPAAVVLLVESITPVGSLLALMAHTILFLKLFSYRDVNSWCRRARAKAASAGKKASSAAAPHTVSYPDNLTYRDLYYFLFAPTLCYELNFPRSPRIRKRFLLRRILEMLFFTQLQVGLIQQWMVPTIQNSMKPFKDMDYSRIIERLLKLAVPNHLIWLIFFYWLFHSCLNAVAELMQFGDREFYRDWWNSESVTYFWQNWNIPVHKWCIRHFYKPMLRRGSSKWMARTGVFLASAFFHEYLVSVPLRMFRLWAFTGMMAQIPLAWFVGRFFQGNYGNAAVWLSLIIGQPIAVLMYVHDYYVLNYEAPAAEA
As to the kind of experiment: in vitro DGAT1 inhibition assay (microsomes, [14C]-palmitoyl-CoA, SPA beads). It counts as biochemical. The note with it: human DGAT1 expressed in Sf9 insect cells, microsomes; 2 hours at room temperature; read-out: IC50. As to the method: The in vitro assay to identify DGAT1 inhibitors uses human DGAT1 enzyme expressed in Sf9 insect cells prepared as microsomes. The reaction was initiated by the addition of the combined substrates 1,2-dioleoyl-sn-glycerol and [^14C]-palmitoyl-Co A and incubated with test compounds and microsomal membranes for 2 hours at room temperature. The assay was stopped by adding 0.5 mg wheat germ agglutinin beads in assay buffer with 1% Brij-35 and 1% 3-cholamidopropyldimethyl-ammonio-1-propane sulfonate. Plates were sealed with TopSeal and incubated for 18 hours to allow the radioactive triglyceride product to come into proximity with the bead. Plates were read on a TopCount instrument.
Percent inhibition was calculated as the percent of (test compound inhibition minus non-specific binding) relative to (total binding minus non-specific binding). IC50 values were determined by curve fitting the data to a Sigmoidal dose-response in GraphPad Prism utilizing the following equation:
Y=A+(B−A)/(1+10̂((Log IC50−X))),
where A and B are the bottom and top of the curve (highest and lowest inhibition), respectively, and X is the logarithm of concentration.
As to `CCOC(=O)c1ccccc1NC(=O)N1CCN(c2ccc(NC(=O)c3oc4ccc(-c5ccccc5OC)cc4c3C)cn2)CC1` [Example 68, ethyl 2-(4-(5-(5-(2-methoxyphenyl)-3-methylbenzofuran-2-carboxamido)pyridin-2-yl)piperazine-1-carboxamido)benzoate], the pIC50 was 5.61. For `Cc1c(C(=O)Nc2ccc(N3CCC(COc4cccc(C(=O)O)c4)CC3)nc2)oc2ccc(-c3ccccc3)cc12` [Example 18, 3-((1-(5-(3-methyl-5-phenylbenzofuran-2-carboxamido)pyridin-2-yl)piperidin-4-yl)methoxy)benzoic acid], the pIC50 was 7.28. Regarding `COc1ccccc1-c1ccc2oc(C(=O)Nc3ccc(N4CCN(C(=O)Nc5ccccc5F)CC4)nc3)c(C)c2c1` [Example 69, N-(2-fluorophenyl)4-(5-(5-(2-methoxyphenyl)-3-methylbenzofuran-2-carboxamido)pyridin-2-yl)piperazine-1-carboxamide], the negative-log IC50 (pIC50) is 6.69. With `Cc1c(C(=O)Nc2ccc(N3CCN(C(=O)C(O)C(F)(F)F)CC3)nc2)oc2ccccc12` (stereo not shown) [Example 3, 3-methyl-N-(6-(4-(3,3,3-trifluoro-2-hydroxypropanoyl)piperazin-1-yl)pyridin-3-yl)benzofuran-2-carboxamide], the negative-log IC50 (pIC50) was 6.23.

Consider `Cc1c(C(=O)Nc2ccc(N3CCC(COc4cccc(C(=O)O)c4)CC3)nc2)oc2ccc(-c3ccc(F)cc3)cc12` [Example 39, 3-((1-(5-(5-(4-fluorophenyl)-3-methylbenzofuran-2-carboxamido)pyridin-2-yl)piperidin-4-yl)methoxy)benzoic acid], for which the pIC50 was 7.26. Regarding `Cc1c(C(=O)Nc2ccc(N3CCN(C(=O)Nc4ccccc4C(=O)O)CC3)nc2)oc2ccc(-c3ccccc3F)cc12` [Example 24, 2-(4-(5-(5-(2-fluorophenyl)-3-methylbenzofuran-2-carboxamido)pyridin-2-yl)piperazine-1-carboxamido)benzoic acid], the negative-log IC50 (pIC50) was 7.23. To `CCOC(=O)c1ccccc1NC(=O)N1CCN(c2ccc(NC(=O)c3oc4ccc(-c5ccc(OC)cc5)cc4c3C)cn2)CC1` [Example 65, ethyl 2-(4-(5-(5-(4-methoxyphenyl)-3-methylbenzofuran-2-carboxamido)pyridin-2-yl)piperazine-1-carboxamido)benzoate] belongs 6.34; to `Cc1c(C(=O)Nc2ccc(N3CCC(COc4cccc(C(=O)O)c4)CC3)nc2)oc2ccc(-c3cccc(F)c3)cc12` [Example 33, 3-((1-(5-(5-(3-fluorophenyl)-3-methylbenzofuran-2-carboxamido)pyridin-2-yl)piperidin-4-yl)methoxy)benzoic acid], 7.03; to `COc1ccccc1-c1ccc2oc(C(=O)Nc3ccc(N4CCC(OCc5cccc(C(=O)O)c5)CC4)nc3)c(C)c2c1` [Example 73, 3-((1-(5-(5-(2-methoxyphenyl)-3-methylbenzofuran-2-carboxamido)pyridin-2-yl)piperidin-4-yloxy)methyl)benzoic acid], 6.97. `Cc1c(C(=O)Nc2ccc(-c3ccc(OC4CCC(C(=O)O)CC4)nc3)nc2)oc2ccc(-c3ccccc3)cc12` (stereo not shown) [Example 95, 4-(5-(3-methyl-5-phenylbenzofuran-2-carboxamido)-2,3′-bipyridin-6′-yloxy)cyclohexanecarboxylic acid]: the pIC50 is 8.22. To `COC(=O)c1cccc(COC2CCN(c3ccc(NC(=O)c4oc5ccc(-c6ccccc6OC)cc5c4C)cn3)CC2)c1` [Example 72, methyl 3-((1-(5-(5-(2-methoxyphenyl)-3-methylbenzofuran-2-carboxamido)pyridin-2-yl)piperidin-4-yloxy)methyl)benzoate] belongs 4.88.

As for `Cc1c(C(=O)Nc2ccc(N3CCN(C(=O)Nc4ccccc4F)CC3)nc2)oc2cc(-c3ccccc3)ccc12` [Example 13, N-(2-fluorophenyl)-4-(5-(3-methyl-6-phenylbenzofuran-2-carboxamido)pyridin-2-yl)piperazine-1-carboxamide], the pIC50 is 6.55. Take `Cc1c(C(=O)Nc2ccc(N3CC[C@H](COc4ccc(C(=O)O)cc4)C3)nc2)oc2ccc(-c3ccccc3)cc12` [Example 81, (S)-4-((1-(5-(3-methyl-5-phenylbenzofuran-2-carboxamido)pyridin-2-yl)pyrrolidin-3-yl)methoxy)benzoic acid]: the negative logarithm of the IC50 (pIC50) was 5.98.
